Results: patent US8182842B1, “Physico-chemical-managed killing of penicillin-resistant static and growing gram-positive and gram-negative vegetative bacteria” (The United States of America as represented by the …, priority 2010, dated 2012)
Entries after “also recorded” stand apart in the source; their conditions may differ.

Legend:
[1] = test system: methicillin-resistant Staphylococcus aureus (MRSA); assay: kill curve time course of MRSA suspensions (CFU survival); format: cell-based
Description: FIGS. 1 through 17 illustrate kill curve time course experiments of stationary and logarithmic-phase MRSA bacterial suspensions exposed to PBS as well as denaturing SS at pH […] or pH 7.4 in the presence of cloxacillin concentrations spanning from 512 μg/ml to 4096 μg/ml. Experiments were conducted at 22° C. or 35° C. The completion time for the experiments ranged from 20 minutes to 24 hours.
For these experiments, the MRSA strain was grown overnight in Mueller-Hinton broth (MH)+2% NaCl at 35° C., subcultured into fresh media, and grown to mid-logarithmic phase. The cells were centrifuged and resuspended in pH 7.4 MH+2% NaCl to produce an OD600 nm known to indicate logarithmic-phase or stationary-phase of growth. An appropriate volume of cells was added to 1 ml of buffered SS in a 10 ml Falcon tube to yield a final concentration of ca. 1×10^8 colony forming units (CFU)/ml, except for the experiments of FIGS. 1-4 where the final concentration of ca. 1×10^6 CFU/ml applies. Survival was determined for bacteria held for varied exposure times of up to 24 hours in the SS or in PBS at pH 5.6 or pH 7.4, each altered with cloxacillin concentrations ranging in doublings from 512 μg/ml to 4096 μg/ml. Survival was measured from samples held at 22° C. and 35° C. After exposure, samples of 50 μl were then withdrawn and a serial dilution series established. Cells were then plated on MH+2% NaCl agar plates and incubated at 22° C. or 35° C. for CFU formation, after which colonies were counted, surviving fractions recorded, and survival curves constructed. Triplicate experiments were conducted for each exposure condition. The cells were treated under static conditions in all cases and treatments were always made on cells held in salt solutions, never on cells held in growth media. In addition to logarithmic-phase cells, stationary-phase cells removed from growth cycle were also treated.
Killing efficiency is evaluated as therapeutically sufficient according to the 10^−5 level of killing in 5 minutes specified by the British Standard BS EN 1276:1997 Chemical Disinfectants and Antiseptics, which is referred to as the gold standard for efficacy of bactericidal agents. Typically, agents meeting the British Standard are too toxic for human topical application. However, this is not a restriction for effective SS containing cloxacillin used in the illustrated embodiment.

Pseudomonas aeruginosa = assay: kill curve time course of Pseudomonas aeruginosa suspensions (CFU survival); format: cell-based; conditions: for killing: 20 minutes
Description: FIGS. 18 through 41 illustrate kill curve time-course experiments of stationary-phase and logarithmic-phase Pseudomonas aeruginosa bacterial suspensions exposed to PBS, to SS, to PBS in the presence of cloxacillin concentrations spanning from 512 μg/ml to 4096 μg/ml, or to SS in the presence of cloxacillin concentrations spanning from 512 μg/ml to 4096 μg/ml. Experiments were conducted at 22° C. or 35° C. over the course of 10, 20, or 60 minutes.
Pseudomonas aeruginosa cells were prepared as described above for MRSA with a few exceptions. The Pseudomonas aeruginosa cells were first grown in trypticase soy broth and then frozen in aliquots, which were later rescued into MH broth+2% NaCl for use as in the MRSA experiments. An appropriate volume of cells was added to 1 ml of comparative salt solutions in a 10 ml Falcon tube to yield a final concentration of ca. 1×10^8 colony forming units (CFU)/ml. Survival was determined for bacteria held for varied exposure times of up to 60 minutes in PBS, in SS, in PBS altered with cloxacillin concentrations ranging in doublings from 512 μg/ml to 4096 μg/ml, or in SS containing cloxacillin concentrations ranging in doublings from 512 μg/ml to 4096 μg/ml. The salt solutions were compared at a pH of 5.6 or 7.4. Survival was measured from samples held at 22° C. or 35° C. After exposure, samples of 50 μl were then withdrawn and a serial dilution series established. Cells were then plated on MH+2% NaCl agar plates and incubated at 22° C. or 35° C. for CFU formation, after which colonies were counted, surviving fractions recorded, and survival curves constructed. Triplicate experiments were conducted for each exposure condition. The cells were treated under static conditions in all cases and treatments were always made on cells held in salt solutions, never on cells held in growth media. In addition to logarithmic-phase cells, stationary-phase cells removed from growth cycle were also treated.

SMILES: Cc1onc(-c2ccccc2Cl)c1C(=O)N[C@@H]1C(=O)N2[C@@H]1SC(C)(C)[C@@H]2C(=O)O [cloxacillin]
- killing effect ([1]; FIG. 1, pH 5.5 PBS, 1024 μg/ml cloxacillin, 22° C., logarithmic-phase MRSA, 20 minute): non-substantial killing effect; also recorded: not effective
- killing effect ([1]; FIG. 2, pH 7.4 PBS, 512 μg/ml cloxacillin, 22° C., logarithmic-phase MRSA, 20 minute): non-substantial killing effect; also recorded: not effective
- killing effect ([1]; FIG. 3, pH 5.5 SS, 1024 μg/ml cloxacillin, 22° C., logarithmic-phase MRSA, 20 minute): not effective; also recorded: non-substantial killing effect
- killing effect ([1]; FIG. 4, pH 7.4 SS, 512 μg/ml cloxacillin, 22° C., logarithmic-phase MRSA, 60 minute): substantial killing; also recorded: killing effect
- surviving fraction ([1]; FIG. 4, pH 7.4 SS, 512 μg/ml cloxacillin, 22° C., logarithmic-phase MRSA, all time points, no survivors on treated plates): < 2×10^−4
- killing effect ([1]; FIG. 5, pH 7.4 SS, 512 μg/ml cloxacillin, 22° C., stationary-phase MRSA, 60 minute): killing effect
- killing effect ([1]; FIG. 6, pH 7.4 SS, 1024 μg/ml cloxacillin, 22° C., stationary-phase MRSA, 60 minute): killing effect
- killing effect ([1]; FIG. 7, pH 7.4 SS, 2048 μg/ml cloxacillin, 22° C., stationary-phase MRSA, 60 minute): killing effect
- killing effect ([1]; FIG. 8, pH 7.4 SS, 4096 μg/ml cloxacillin, 22° C., stationary-phase MRSA, 60 minute): killing effect
- time in which the 10^−5 level of killing is achieved ([1]; FIG. 9, pH 7.4 SS, 4096 μg/ml cloxacillin, 22° C., stationary-phase MRSA): 3 hours
- killing effect ([1]; FIG. 9, pH 7.4 SS, 4096 μg/ml cloxacillin, 22° C., stationary-phase MRSA, 24 hour): killing effect
- killing effect ([1]; FIG. 10, pH 7.4 SS, 512 μg/ml cloxacillin, 35° C., logarithmic-phase MRSA, 20 minute): killing effect
- killing effect ([1]; FIG. 11, pH 7.4 SS, 1024 μg/ml cloxacillin, 35° C., logarithmic-phase MRSA, 20 minute): killing effect
- killing effect ([1]; FIG. 12, pH 7.4 SS, 2048 μg/ml cloxacillin, 35° C., logarithmic-phase MRSA, 20 minute): killing effect
- killing effect ([1]; FIG. 13, pH 7.4 SS, 4096 μg/ml cloxacillin, 35° C., logarithmic-phase MRSA, 20 minute): killing effect
- killing effect ([1]; FIG. 14, pH 7.4 SS, 512 μg/ml cloxacillin, 35° C., stationary-phase MRSA, 60 minute): killing effect
- killing effect ([1]; FIG. 15, pH 7.4 SS, 1024 μg/ml cloxacillin, 35° C., stationary-phase MRSA, 60 minute): killing effect
- killing effect ([1]; FIG. 16, pH 7.4 SS, 2048 μg/ml cloxacillin, 35° C., stationary-phase MRSA, 60 minute): killing effect
- killing effect ([1]; FIG. 17, pH 7.4 SS, 4096 μg/ml cloxacillin, 35° C., stationary-phase MRSA, 60 minute): killing effect
- efficiency of killing versus British Standard BS EN 1276:1997 (10^−5 level of killing in 5 minutes) ([1]; FIGS. 5-9, pH 7.4 SS, 512 to 4096 μg/ml cloxacillin, 22° C., stationary-phase MRSA): does not provide the 10^−5 level of killing in 5 minutes
- killing compared with 22° C. ([1]; FIGS. 10-13, pH 7.4 SS, 512 to 4096 μg/ml cloxacillin, 35° C., logarithmic-phase MRSA): killing is enhanced
- killing compared with 22° C. ([1]; FIGS. 14-17, pH 7.4 SS, 512 to 4096 μg/ml cloxacillin, 35° C., stationary-phase MRSA): enhanced killing
- efficiency of killing versus British Standard BS EN 1276:1997 (10^−5 level of killing in 5 minutes) ([1]; pH 7.4 SS with cloxacillin, 35° C., logarithmic-phase MRSA): approaches or exceeds the 10^−5 level of killing in 5 minutes
- efficiency of killing versus British Standard BS EN 1276:1997 (10^−5 level of killing in 5 minutes) ([1]; pH 7.4 SS with cloxacillin, 35° C., stationary-phase MRSA): approaches or exceeds the 10^−5 level of killing in 5 minutes
- killing effect (Pseudomonas aeruginosa; FIG. 22, pH 7.4 PBS, 512 μg/ml cloxacillin, 22° C., logarithmic-phase, 20 minute): non-substantial killing effect
- killing effect (Pseudomonas aeruginosa; FIG. 23, pH 7.4 PBS, 1024 μg/ml cloxacillin, 22° C., logarithmic-phase, 20 minute): non-substantial killing effect
- killing effect (Pseudomonas aeruginosa; FIG. 24, pH 7.4 PBS, 2048 μg/ml cloxacillin, 22° C., logarithmic-phase, 20 minute): non-substantial killing effect
- killing effect (Pseudomonas aeruginosa; FIG. 25, pH 7.4 PBS, 4096 μg/ml cloxacillin, 22° C., logarithmic-phase, 20 minute): non-substantial killing effect
- killing effect (Pseudomonas aeruginosa; FIG. 26, pH 7.4 SS, 512 μg/ml cloxacillin, 22° C., logarithmic-phase, 20 minute): killing effect
- killing effect (Pseudomonas aeruginosa; FIG. 27, pH 7.4 SS, 1024 μg/ml cloxacillin, 22° C., logarithmic-phase, 20 minute): killing effect
- killing effect (Pseudomonas aeruginosa; FIG. 28, pH 7.4 SS, 2048 μg/ml cloxacillin, 22° C., logarithmic-phase, 10 minute): killing effect
- killing effect (Pseudomonas aeruginosa; FIG. 29, pH 7.4 SS, 4096 μg/ml cloxacillin, 22° C., logarithmic-phase, 10 minute): killing effect
- killing effect (Pseudomonas aeruginosa; FIG. 30, pH 7.4 PBS, 512 μg/ml cloxacillin, 35° C., logarithmic-phase, 20 minute): non-substantial killing effect
- killing effect (Pseudomonas aeruginosa; FIG. 31, pH 7.4 PBS, 1024 μg/ml cloxacillin, 35° C., logarithmic-phase, 20 minute): non-substantial killing effect
- killing effect (Pseudomonas aeruginosa; FIG. 32, pH 7.4 PBS, 2048 μg/ml cloxacillin, 35° C., logarithmic-phase, 20 minute): non-substantial killing effect
- killing effect (Pseudomonas aeruginosa; FIG. 33, pH 7.4 PBS, 4096 μg/ml cloxacillin, 35° C., logarithmic-phase, 20 minute): non-substantial killing effect
- killing effect (Pseudomonas aeruginosa; FIG. 34, pH 7.4 SS, 512 μg/ml cloxacillin, 35° C., logarithmic-phase, 20 minute): killing effect
- killing effect (Pseudomonas aeruginosa; FIG. 35, pH 7.4 SS, 1024 μg/ml cloxacillin, 35° C., logarithmic-phase, 20 minute): killing effect
- killing effect (Pseudomonas aeruginosa; FIG. 36, pH 7.4 SS, 2048 μg/ml cloxacillin, 35° C., logarithmic-phase, 20 minute): killing effect
- killing effect (Pseudomonas aeruginosa; FIG. 37, pH 7.4 SS, 4096 μg/ml cloxacillin, 35° C., logarithmic-phase, 20 minute): killing effect
- killing effect (Pseudomonas aeruginosa; FIG. 38, pH 7.4 SS, 512 μg/ml cloxacillin, 22° C., stationary-phase, 20 minute): killing effect
- killing effect (Pseudomonas aeruginosa; FIG. 39, pH 7.4 SS, 1024 μg/ml cloxacillin, 22° C., stationary-phase, 20 minute): killing effect
- killing effect (Pseudomonas aeruginosa; FIG. 40, pH 7.4 SS, 2048 μg/ml cloxacillin, 22° C., stationary-phase, 20 minute): killing effect
- killing effect (Pseudomonas aeruginosa; FIG. 41, pH 7.4 SS, 4096 μg/ml cloxacillin, 22° C., stationary-phase, 20 minute): killing effect
- killing (Pseudomonas aeruginosa; FIGS. 22-25, PBS pH 7.4, 512 to 4096 μg/ml cloxacillin, 22° C., logarithmic-phase): non-substantial killing
- efficiency of killing (Pseudomonas aeruginosa; FIGS. 26-29, SS pH 7.4, all concentrations 512 to 4096 μg/ml cloxacillin, 22° C., logarithmic-phase, 10 or 20 minutes): substantially efficient in killing
- killing (Pseudomonas aeruginosa; FIGS. 30-33, PBS pH 7.4, 512 to 4096 μg/ml cloxacillin, 35° C., logarithmic-phase): non-substantial killing
- killing (Pseudomonas aeruginosa; FIGS. 34-37, SS pH 7.4, 512 to 4096 μg/ml cloxacillin, 35° C., logarithmic-phase): substantial killing
- killing (Pseudomonas aeruginosa; FIGS. 38-41, SS pH 7.4, 512 to 4096 μg/ml cloxacillin, 22° C., stationary-phase): substantial killing
